The target of test [1] is T1, human OPRM1 (μ, MOR) (Homo sapiens, UniProt P35372).
T1 construct: host or cells: CHO-K1
In words: cell-based. The following applies: for Emax: OPRM1, read-out: cAMP Emax; for EC50: PathHunter human OPRM1 Arrestin CHO-K1 cell line, read-out: cAMP EC50. How it is done: G-protein signaling was measured via second messenger cAMP modulation. Detection of cAMP modulation was accomplished in the PathHunter human OPRM1 (μ, MOR) Arrestin CHO-K1 cell line using the Dynamic2 cAMP Kit from Cisbio.

Test [2] has as its target T1, human OPRM1 (μ, MOR). In words: cell-based. The note with it: for Emax: OPRM1, read-out: β-Arrestin Emax; for EC50: PathHunter human OPRM1 Arrestin CHO-K1 cell line, read-out: β-Arrestin EC50. Here is the method: The Discoverx PathHunter® β-Arrestin assay is used to measure β-arrestin-2 activity. The technology is based on Enzyme Fragment Complementation (EFC) with β-galactosidase (β-Gal) as the reporter. […] EA is fused to Q-arrestin-2, and ED is fused to the C-terminus of the GPCR of interest. When a ligand binds and the GPCR is activated, Q-arrestin-2 is recruited to the receptor resulting in an ED/EA complementation, restoring f-Gal activity, which is measured using chemiluminescence. For this assay, the PathHunter human OPRM1 (μ, MOR) Arrestin CHO-K1 cell line was used.

Test [3] has as its target T1, human OPRM1 (μ, MOR). It is filed as cell-based. The following applies: for ΔRA of compound: relative activity from EC50 and Emax of β-arrestin vs cAMP, lower RA = more G-protein biased. How it is done:
In certain embodiments, the ability of a compound to activate G-protein or β-arrestin is not an on/off switch for a given pathway, but rather a continuous function. To capture this, each compound is measured for activity in cell assays that are linked to β-arrestin recruitment and G-protein signaling. By comparing the activity between these two measures (accounting for both EC50 and maximal response reached, Emax) a relative activity (RA) value is determined.
In the case of MOR it is desirable to have high activation of the G-protein pathway while reducing activation of β-arrestin. In the case of the formula above, this means a lower RA.

The text below walks through data of patent US20220315567A1 (priority 2016, published 2022).

Counter-ions that a name gives are not always drawn. Like-named read-outs stand apart in the source and are kept apart here.

T1 sequence (P35372 whole entry): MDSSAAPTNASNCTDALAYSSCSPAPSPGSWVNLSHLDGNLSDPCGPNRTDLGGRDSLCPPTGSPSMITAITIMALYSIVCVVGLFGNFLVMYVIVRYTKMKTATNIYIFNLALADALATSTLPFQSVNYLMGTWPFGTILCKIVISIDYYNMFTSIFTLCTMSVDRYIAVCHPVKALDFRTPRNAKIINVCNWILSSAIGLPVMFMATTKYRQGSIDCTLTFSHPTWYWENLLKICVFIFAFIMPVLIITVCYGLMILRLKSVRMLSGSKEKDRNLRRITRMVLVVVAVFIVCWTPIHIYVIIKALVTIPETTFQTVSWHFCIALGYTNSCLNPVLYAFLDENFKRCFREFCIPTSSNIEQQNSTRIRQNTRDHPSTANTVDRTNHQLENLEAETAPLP

By Emax is commonly meant the maximal effect, on the per cent scale that the assay sets. One may read the EC50 as the concentration needed to bring the measured effect to its halfway point. For the molecule `CN(C)C(CNC(=O)NC1CCCc2ccccc21)c1ccsc1` (stereo not drawn) [Compound 11a, 1-(2-(Dimethylamino)-2-(thiophen-3-yl)ethyl)-3-(1,2,3,4-tetrahydronaphthalen-1-yl)urea hydrochloride], at human OPRM1 (μ, MOR) [1], the maximal effect (Emax) is 94.3% and the EC50 is < 1 nM. For the same molecule, on human OPRM1 (μ, MOR) [2], the maximal effect (Emax) stood at 112% and the EC50 was 21 nM. In addition, at human OPRM1 (μ, MOR) [3], the “Bias Factor (ΔRA of compound relative to ΔRA of DAMGO) × 10” value was found to be 2.32 and the ΔRA of compound was −1.24.

With `CN(C)C(CNC(=O)NC1CCc2ccccc2C1)c1ccccc1` (stereo not drawn) [Compound 19a, 1-(2-(Dimethylamino)-2-phenylethyl)-3-(1,2,3,4-tetrahydronaphthalen-2-yl)urea hydrochloride], at human OPRM1 (μ, MOR) [1], the Emax worked out at 86.1% and the EC50 worked out at 32 nM. On human OPRM1 (μ, MOR) [2], the maximal response (Emax) was determined as 2.34% and the 50% effective concentration (EC50) was > 100000 nM. At human OPRM1 (μ, MOR) [3], the “Bias Factor (ΔRA of compound relative to ΔRA of DAMGO) × 10” value is on record as <−14.83 and the ΔRA of compound is recorded as <−2.96.

With `CN(C)C(CNC(=O)N1CCCc2ccccc21)c1ccsc1` (stereo not drawn) [Compound 9a, N-(2-(dimethylamino)-2-(thiophen-3-yl)ethyl)-3,4-dihydroquinoline-1(2H)-carboxamide hydrochloride], at human OPRM1 (μ, MOR) [1], the maximum response (Emax) is 75.7% and the concentration giving a half-maximal response (EC50) worked out at 512 nM. For the same molecule, on human OPRM1 (μ, MOR) [2], the Emax stood at 5.11% and the EC50 stood at 4360 nM. Moreover, at human OPRM1 (μ, MOR) [3], the “Bias Factor (ΔRA of compound relative to ΔRA of DAMGO) × 10” value was −6.20 and the ΔRA of compound is recorded as −2.10.

As to `CN(C)C(CNC(=O)N1CCCc2ccc(O)cc21)c1ccsc1` (stereo not drawn) [Compound 49], on human OPRM1 (μ, MOR) [1], the maximal effect (Emax) was determined as 97% and the EC50 was found to be 998 nM. Besides, on human OPRM1 (μ, MOR) [2], the Emax was < 1% and the 50% effective concentration (EC50) is > 100000 nM. On human OPRM1 (μ, MOR) [3], the “Bias Factor (ΔRA of compound relative to ΔRA of DAMGO) × 10” value is given as <−14.83 and the ΔRA of compound is recorded as <−2.96.

`CN(C)C(CNC(=O)N1CCCc2ccc(F)cc21)c1ccsc1` (stereo not drawn) [Compound 8a, N-(2-(dimethylamino)-2-(thiophen-3-yl)ethyl)-7-fluoro-3,4-dihydroquinoline-1(2H)-carboxamide]: at human OPRM1 (μ, MOR) [1], the Emax was determined as 86.9% and the 50% effective concentration (EC50) is 730 nM. At human OPRM1 (μ, MOR) [2], the Emax amounted to 6.18% and the EC50 was > 100000 nM. Besides, on human OPRM1 (μ, MOR) [3], the “Bias Factor (ΔRA of compound relative to ΔRA of DAMGO) × 10” value is on record as <−14.83 and the ΔRA of compound is given as <−2.96.

As to `COc1ccc(C(CNC(=O)N2Cc3ccc(F)cc3C2)N(C)C)cc1` (stereo not drawn) [Compound 16a, N-(2-(Dimethylamino)-2-(4-methoxyphenyl)ethyl)-5-fluoroisoindoline-2-carboxamide hydrochloride], at human OPRM1 (μ, MOR) [1], the maximum response (Emax) came to 91.9% and the EC50 stood at 26 nM. Also, at human OPRM1 (μ, MOR) [2], the maximum response (Emax) came to 12.2% and the EC50 came to 950 nM. Moreover, on human OPRM1 (μ, MOR) [3], the “Bias Factor (ΔRA of compound relative to ΔRA of DAMGO) × 10” value is given as −9.60 and the ΔRA of compound is recorded as −2.44.

As for `CN(C)C1(CNC(=O)N2Cc3ccc(F)cc3C2)CCCC1` [Compound 63], at human OPRM1 (μ, MOR) [1], the maximum response (Emax) was 87.9% and the concentration for a half-maximal effect (EC50) turned out to be 2510 nM. Besides, at human OPRM1 (μ, MOR) [2], the Emax is < 1% and the EC50 was > 100000 nM. In addition, on human OPRM1 (μ, MOR) [3], the “Bias Factor (ΔRA of compound relative to ΔRA of DAMGO) × 10” value is on record as <−14.83 and the ΔRA of compound is given as <−2.96.

As for `CN(C)C(CNC(=O)N1CCCc2cc(F)ccc21)c1ccsc1` (stereo not drawn) [Compound 7a, N-(2-(dimethylamino)-2-(thiophen-3-yl)ethyl)-6-fluoro-3,4-dihydroquinoline-1(2H)-carboxamide hydrochloride], at human OPRM1 (μ, MOR) [1], the maximal effect (Emax) is 92.1% and the EC50 is 407 nM. For the same molecule, at human OPRM1 (μ, MOR) [2], the maximal response (Emax) is < 1% and the EC50 was > 100000 nM. At human OPRM1 (μ, MOR) [3], the “Bias Factor (ΔRA of compound relative to ΔRA of DAMGO) × 10” value is reported as <−14.83 and the ΔRA of compound is reported as <−2.96.

In the case of `CN(C)C(CNC(=O)N(C)[C@H]1CCCc2ccccc21)c1ccsc1` (stereo partly drawn) [Compound 39], at human OPRM1 (μ, MOR) [1], the Emax turned out to be 93.4% and the EC50 turned out to be 118 nM. At human OPRM1 (μ, MOR) [2], the maximal response (Emax) was 10.9% and the EC50 was 644 nM. Further, on human OPRM1 (μ, MOR) [3], the “Bias Factor (ΔRA of compound relative to ΔRA of DAMGO) × 10” value is listed as −1.90 and the ΔRA of compound is recorded as −1.67.

In the case of `CN(C)C(CNC(=O)NC1CCCc2c(O)cccc21)c1ccsc1` (stereo not drawn) [Compound 59], at human OPRM1 (μ, MOR) [1], the maximal effect (Emax) was 108% and the concentration giving a half-maximal response (EC50) came to 6 nM. At human OPRM1 (μ, MOR) [2], the Emax is 61% and the concentration for a half-maximal effect (EC50) was determined as 160 nM. Further, at human OPRM1 (μ, MOR) [3], the “Bias Factor (ΔRA of compound relative to ΔRA of DAMGO) × 10” value is −1.95 and the ΔRA of compound is listed as −1.67.

`CN(C)C(CNC(=O)N1CCCc2ccccc21)c1ccccc1` (stereo not drawn) [Compound 69a]: at human OPRM1 (μ, MOR) [1], the maximum response (Emax) amounted to 110% and the EC50 was 563 nM. Also, on human OPRM1 (μ, MOR) [2], the maximum response (Emax) was 8% and the EC50 is 8560 nM. On human OPRM1 (μ, MOR) [3], the “Bias Factor (ΔRA of compound relative to ΔRA of DAMGO) × 10” value is on record as −8.38 and the ΔRA of compound is −2.32.

With `CNC(CNC(=O)N1Cc2ccccc2C1)c1ccccc1` (stereo not drawn) [Compound 38, N-(2-(methylamino)-2-phenylethyl)isoindoline-2-carboxamide], on human OPRM1 (μ, MOR) [1], the maximal response (Emax) was 95.9% and the EC50 worked out at 45 nM. Further, at human OPRM1 (μ, MOR) [2], the Emax was found to be 6.6% and the EC50 was 1670 nM. Moreover, at human OPRM1 (μ, MOR) [3], the “Bias Factor (ΔRA of compound relative to ΔRA of DAMGO) × 10” value is −12.56 and the ΔRA of compound is listed as −2.74.

As to `CN(C)C(CNC(=O)N1Cc2ccc(F)cc2C1)c1ccc(F)cc1Cl` (stereo not drawn) [Compound 17a, N-(2-(2-Chloro-4-fluorophenyl)-2-(dimethylamino)ethyl)-5-fluoroisoindoline-2-carboxamide hydrochloride], on human OPRM1 (μ, MOR) [1], the Emax turned out to be 111% and the concentration for a half-maximal effect (EC50) turned out to be 43 nM. Moreover, on human OPRM1 (μ, MOR) [2], the Emax was 27% and the EC50 came out at 5120 nM. Also, at human OPRM1 (μ, MOR) [3], the “Bias Factor (ΔRA of compound relative to ΔRA of DAMGO) × 10” value was −12.08 and the ΔRA of compound is on record as −2.69.

Consider `CN(C)[C@H](CCNC(=O)N1CC[C@@H](c2ccccc2)C1)c1ccsc1` [Compound 76], for which, on human OPRM1 (μ, MOR) [1], the Emax was 33% and the EC50 was found to be 1760 nM. For the same molecule, at human OPRM1 (μ, MOR) [2], the maximum response (Emax) was < 1% and the EC50 is > 100000 nM. At human OPRM1 (μ, MOR) [3], the “Bias Factor (ΔRA of compound relative to ΔRA of DAMGO) × 10” value is <−14.83 and the ΔRA of compound is on record as <−2.96.

For the molecule `CNC(CNC(=O)N1Cc2ccc(F)cc2C1)c1ccc(OC)cc1` (stereo not drawn) [Compound 83], at human OPRM1 (μ, MOR) [1], the “cAMP Emax” value stood at 100.1% and the EC50 came to 57 nM. Moreover, at human OPRM1 (μ, MOR) [2], the “β-Arrestin Emax” value came to 13.4% and the EC50 is > 100000 nM. On human OPRM1 (μ, MOR) [3], the “Bias Factor (ΔRA of compound relative to ΔRA of DAMGO) × 10” value is reported as <−14.83 and the ΔRA of compound is given as <−2.96.

Regarding `COc1ccc(C(CNC(=O)N2CC[C@@H](c3ccccc3)C2)N(C)C)cc1` (stereo partly drawn) [Compound 42], on human OPRM1 (μ, MOR) [1], the maximum response (Emax) was 21.9% and the concentration for a half-maximal effect (EC50) came to 7430 nM. Further, on human OPRM1 (μ, MOR) [2], the Emax was < 1% and the EC50 was > 100000 nM. In addition, on human OPRM1 (μ, MOR) [3], the “Bias Factor (ΔRA of compound relative to ΔRA of DAMGO) × 10” value is listed as <−14.83 and the ΔRA of compound is on record as <−2.96.

As for `COc1ccc(C(CNC(=O)N2Cc3ccccc3C2)N(C)C)cc1` (stereo not drawn) [Compound 15a, N-(2-(Dimethylamino)-2-(4-methoxyphenyl)ethyl)isoindoline-2-carboxamide hydrochloride], at human OPRM1 (μ, MOR) [1], the maximal response (Emax) was 108% and the EC50 turned out to be 15 nM. At human OPRM1 (μ, MOR) [2], the maximal response (Emax) is 44.2% and the concentration giving a half-maximal response (EC50) came to 1370 nM. Moreover, at human OPRM1 (μ, MOR) [3], the “Bias Factor (ΔRA of compound relative to ΔRA of DAMGO) × 10” value is given as −8.71 and the ΔRA of compound is given as −2.35.
